Reference: ChEMBL document CHEMBL3351304, “Bioactive constituents from the green alga Caulerpa racemosa” (Bioorg Med Chem, 2015)

Experiments:
[1] = Cytotoxicity against human HL60 cells by SRB assay; format: functional, cell-based; conditions: HL-60
[2] = molecular target: Receptor-type tyrosine-protein phosphatase F (Homo sapiens) (UniProt P10586); assay: Inhibition of LAR (unknown origin) using pNPP as substrate at 20 ug/ml by spectrophotometry
[3] = tested on: A549; assay: Cytotoxicity against human A549 cells by SRB assay; format: functional, cell-based
[4] = molecular target: T1, Tyrosine-protein phosphatase non-receptor type 6 (Homo sapiens, UniProt P29350); assay: Inhibition of SHP1 (unknown origin) using pNPP as substrate at 20 ug/ml by spectrophotometry
T1 sequence (P29350 whole entry): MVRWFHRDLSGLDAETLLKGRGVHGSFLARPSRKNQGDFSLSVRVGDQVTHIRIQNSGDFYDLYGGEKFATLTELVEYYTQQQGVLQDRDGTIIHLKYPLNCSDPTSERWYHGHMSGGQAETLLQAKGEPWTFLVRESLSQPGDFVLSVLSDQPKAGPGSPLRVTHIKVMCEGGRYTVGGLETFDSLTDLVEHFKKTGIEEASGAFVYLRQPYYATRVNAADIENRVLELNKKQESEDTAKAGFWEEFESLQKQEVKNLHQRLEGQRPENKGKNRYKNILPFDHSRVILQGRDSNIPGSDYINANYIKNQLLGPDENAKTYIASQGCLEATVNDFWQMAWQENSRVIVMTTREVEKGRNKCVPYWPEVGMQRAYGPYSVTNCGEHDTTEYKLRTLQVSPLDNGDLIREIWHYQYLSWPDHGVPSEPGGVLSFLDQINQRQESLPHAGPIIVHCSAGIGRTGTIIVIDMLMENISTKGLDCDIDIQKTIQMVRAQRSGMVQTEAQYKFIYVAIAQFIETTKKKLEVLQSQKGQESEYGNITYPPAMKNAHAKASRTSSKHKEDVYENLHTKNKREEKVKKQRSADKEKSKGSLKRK

[5] = molecular target: T2, M-phase inducer phosphatase 2 (Homo sapiens) (UniProt P30305); assay: Inhibition of CDC25B (unknown origin) using pNPP as substrate at 20 ug/ml by spectrophotometry
T2 sequence (whole entry): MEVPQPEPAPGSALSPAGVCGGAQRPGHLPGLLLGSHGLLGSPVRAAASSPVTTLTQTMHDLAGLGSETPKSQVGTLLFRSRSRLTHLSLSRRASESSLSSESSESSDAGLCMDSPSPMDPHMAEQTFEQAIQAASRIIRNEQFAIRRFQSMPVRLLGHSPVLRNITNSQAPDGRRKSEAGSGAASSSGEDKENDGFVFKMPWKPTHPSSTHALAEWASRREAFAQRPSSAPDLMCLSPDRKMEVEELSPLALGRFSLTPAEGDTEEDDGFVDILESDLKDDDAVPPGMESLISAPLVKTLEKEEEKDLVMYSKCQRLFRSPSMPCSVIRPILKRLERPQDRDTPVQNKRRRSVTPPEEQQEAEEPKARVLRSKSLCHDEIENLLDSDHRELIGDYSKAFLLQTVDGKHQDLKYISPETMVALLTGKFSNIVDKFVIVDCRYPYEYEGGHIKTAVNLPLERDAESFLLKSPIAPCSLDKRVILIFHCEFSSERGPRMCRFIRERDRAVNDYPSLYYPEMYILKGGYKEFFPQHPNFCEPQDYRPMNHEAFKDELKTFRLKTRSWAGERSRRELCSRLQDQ

[6] = molecular target: T3, Tyrosine-protein phosphatase non-receptor type 11 (Homo sapiens) (UniProt Q06124); assay: Inhibition of SHP2 (unknown origin) using pNPP as substrate at 20 ug/ml by spectrophotometry
T3 sequence (whole entry): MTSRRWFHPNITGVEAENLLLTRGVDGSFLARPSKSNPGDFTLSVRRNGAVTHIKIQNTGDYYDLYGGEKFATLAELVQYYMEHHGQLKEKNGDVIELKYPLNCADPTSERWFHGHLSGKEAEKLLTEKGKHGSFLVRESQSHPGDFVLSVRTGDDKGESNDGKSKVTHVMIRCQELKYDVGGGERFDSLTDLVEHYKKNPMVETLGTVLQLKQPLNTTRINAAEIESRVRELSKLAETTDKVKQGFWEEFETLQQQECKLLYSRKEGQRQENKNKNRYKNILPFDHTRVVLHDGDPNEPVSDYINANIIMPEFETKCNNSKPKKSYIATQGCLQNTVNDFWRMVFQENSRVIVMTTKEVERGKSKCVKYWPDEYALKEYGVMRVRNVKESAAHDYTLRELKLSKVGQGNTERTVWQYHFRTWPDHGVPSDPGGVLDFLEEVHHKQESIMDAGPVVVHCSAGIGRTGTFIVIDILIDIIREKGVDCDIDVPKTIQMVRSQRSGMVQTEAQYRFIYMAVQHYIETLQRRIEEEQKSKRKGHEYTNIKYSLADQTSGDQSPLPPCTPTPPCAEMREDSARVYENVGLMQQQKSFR

[7] = molecular target: T4, Tyrosine-protein phosphatase non-receptor type 2 (Homo sapiens) (UniProt P17706); assay: Inhibition of TC-PTP (unknown origin) using pNPP as substrate at 20 ug/ml by spectrophotometry
T4 sequence (whole entry): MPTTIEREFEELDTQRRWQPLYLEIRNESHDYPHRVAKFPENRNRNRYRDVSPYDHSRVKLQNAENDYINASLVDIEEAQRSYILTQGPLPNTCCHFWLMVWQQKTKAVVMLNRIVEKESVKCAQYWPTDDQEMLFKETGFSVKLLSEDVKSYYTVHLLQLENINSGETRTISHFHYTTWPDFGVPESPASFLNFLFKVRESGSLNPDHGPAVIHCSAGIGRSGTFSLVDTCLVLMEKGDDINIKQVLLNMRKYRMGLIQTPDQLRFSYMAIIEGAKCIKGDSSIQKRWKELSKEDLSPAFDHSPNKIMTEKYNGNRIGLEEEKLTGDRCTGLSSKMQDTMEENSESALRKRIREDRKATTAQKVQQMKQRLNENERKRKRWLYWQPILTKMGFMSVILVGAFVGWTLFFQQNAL

[8] = molecular target: T5, Tyrosine-protein phosphatase non-receptor type 1 (Homo sapiens, UniProt P18031); assay: Inhibition of purified recombinant PTP1B catalytic domain (unknown origin) using pNPP as substrate by spectrophotometry
T5 sequence (P18031 whole entry): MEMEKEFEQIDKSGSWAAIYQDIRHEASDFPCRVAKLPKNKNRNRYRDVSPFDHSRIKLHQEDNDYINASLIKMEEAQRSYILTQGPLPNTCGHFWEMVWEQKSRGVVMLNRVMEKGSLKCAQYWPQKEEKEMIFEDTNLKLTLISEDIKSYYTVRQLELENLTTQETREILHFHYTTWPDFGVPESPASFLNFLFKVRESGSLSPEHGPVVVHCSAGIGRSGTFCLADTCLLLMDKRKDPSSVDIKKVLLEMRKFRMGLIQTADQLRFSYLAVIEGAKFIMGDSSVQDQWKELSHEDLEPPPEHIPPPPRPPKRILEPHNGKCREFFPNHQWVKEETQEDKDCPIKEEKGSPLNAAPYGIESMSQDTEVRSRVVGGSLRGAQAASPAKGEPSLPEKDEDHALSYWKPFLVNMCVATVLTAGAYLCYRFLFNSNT

[9] = molecular target: T1, Tyrosine-protein phosphatase non-receptor type 6
Description: Inhibition of SHP1 (unknown origin) using pNPP as substrate by spectrophotometry

[10] = molecular target: T6, M-phase inducer phosphatase 2 (Homo sapiens, UniProt P30305); assay: Inhibition of CDC25B (unknown origin) using pNPP as substrate by spectrophotometry
T6 sequence (P30305 whole entry): T2 sequence (whole entry)

[11] = tested on: SH-SY5Y; assay: Neuroprotective activity against amyloid beta(25 to 35)-induced cell damage in human SH-SY5Y cells assessed as increase in cell viability preincubated at 10 uM 2 hrs prior to challenge by MTT assay relative to control; format: functional
[12] = molecular target: T7, Tyrosine-protein phosphatase non-receptor type 2 (Homo sapiens, UniProt P17706); assay: Inhibition of TC-PTP (unknown origin) using pNPP as substrate by spectrophotometry
T7 sequence (P17706 whole entry): T4 sequence (whole entry)

Chain of Receptor-type tyrosine-protein phosphatase F (Homo sapiens) (P10586 whole entry): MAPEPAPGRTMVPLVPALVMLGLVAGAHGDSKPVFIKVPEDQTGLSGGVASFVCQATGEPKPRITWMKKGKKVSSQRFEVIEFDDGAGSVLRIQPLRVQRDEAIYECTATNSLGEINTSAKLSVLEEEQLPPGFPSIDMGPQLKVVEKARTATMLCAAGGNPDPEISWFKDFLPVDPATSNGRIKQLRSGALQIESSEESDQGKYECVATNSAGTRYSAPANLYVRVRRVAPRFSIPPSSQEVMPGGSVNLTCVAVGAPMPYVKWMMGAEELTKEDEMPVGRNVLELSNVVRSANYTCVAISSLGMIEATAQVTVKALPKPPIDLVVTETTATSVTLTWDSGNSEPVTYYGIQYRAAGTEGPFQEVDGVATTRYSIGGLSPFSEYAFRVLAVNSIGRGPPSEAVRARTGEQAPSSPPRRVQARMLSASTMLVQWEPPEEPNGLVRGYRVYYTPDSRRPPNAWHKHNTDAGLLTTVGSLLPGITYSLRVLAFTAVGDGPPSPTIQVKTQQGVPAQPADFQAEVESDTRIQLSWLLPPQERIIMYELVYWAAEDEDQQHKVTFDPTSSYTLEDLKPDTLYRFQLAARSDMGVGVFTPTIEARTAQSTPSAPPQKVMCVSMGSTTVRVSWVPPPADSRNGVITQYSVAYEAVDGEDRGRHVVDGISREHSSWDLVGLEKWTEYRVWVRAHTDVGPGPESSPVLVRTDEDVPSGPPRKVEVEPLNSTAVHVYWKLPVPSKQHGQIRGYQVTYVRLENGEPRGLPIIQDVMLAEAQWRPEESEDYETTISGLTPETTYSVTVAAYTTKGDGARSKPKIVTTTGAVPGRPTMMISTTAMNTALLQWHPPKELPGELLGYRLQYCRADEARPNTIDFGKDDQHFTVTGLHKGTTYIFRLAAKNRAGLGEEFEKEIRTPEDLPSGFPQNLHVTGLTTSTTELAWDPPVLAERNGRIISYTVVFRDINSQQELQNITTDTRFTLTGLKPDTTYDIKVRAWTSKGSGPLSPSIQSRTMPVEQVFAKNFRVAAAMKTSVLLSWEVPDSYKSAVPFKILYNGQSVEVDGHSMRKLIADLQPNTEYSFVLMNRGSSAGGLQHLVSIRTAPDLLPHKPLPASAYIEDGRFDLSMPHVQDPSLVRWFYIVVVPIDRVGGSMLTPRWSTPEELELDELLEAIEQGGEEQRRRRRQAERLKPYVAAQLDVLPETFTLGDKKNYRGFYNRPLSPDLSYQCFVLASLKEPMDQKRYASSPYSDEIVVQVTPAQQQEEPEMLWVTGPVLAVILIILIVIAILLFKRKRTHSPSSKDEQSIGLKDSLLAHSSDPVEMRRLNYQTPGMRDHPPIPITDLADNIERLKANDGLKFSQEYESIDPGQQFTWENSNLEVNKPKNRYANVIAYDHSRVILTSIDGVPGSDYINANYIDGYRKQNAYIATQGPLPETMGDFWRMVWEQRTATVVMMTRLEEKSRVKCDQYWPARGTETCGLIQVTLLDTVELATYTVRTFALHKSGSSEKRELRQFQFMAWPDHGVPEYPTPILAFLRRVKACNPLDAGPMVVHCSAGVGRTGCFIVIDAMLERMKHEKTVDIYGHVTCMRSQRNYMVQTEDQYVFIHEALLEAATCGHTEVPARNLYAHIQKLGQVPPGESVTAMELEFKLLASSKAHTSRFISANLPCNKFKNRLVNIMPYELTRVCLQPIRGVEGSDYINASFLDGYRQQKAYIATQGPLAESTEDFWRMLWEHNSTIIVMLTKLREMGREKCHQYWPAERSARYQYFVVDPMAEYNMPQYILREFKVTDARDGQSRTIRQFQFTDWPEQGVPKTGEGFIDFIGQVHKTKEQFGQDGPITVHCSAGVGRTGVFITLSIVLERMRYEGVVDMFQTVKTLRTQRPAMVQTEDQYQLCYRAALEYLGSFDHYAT

## COc1cccc2c1C(=O)c1c(O)c3c(c(O)c1C2=O)C[C@@](O)(C(=O)CO)C[C@@H]3O[C@H]1C[C@H](N)[C@H](O)[C@H](C)O1 [DOXORUBICIN]
[1]
  IC50: 0.123 µM

## C=C[C@](O)(CC[C@@H](C)[C@H]1CC[C@H]2[C@@H]3CC=C4C[C@@H](O)CC[C@]4(C)[C@H]3CC[C@]12C)C(C)C
[2]
  inhibition: < 50%
[3]
  IC50: > 100 µM
[4]
  inhibition: < 50%
[5]
  inhibition: < 50%
[6]
  inhibition: < 50%
[1]
  IC50: > 100 µM
[7]
  inhibition: < 50%
[8]
  IC50: 41.7 µM

## SODIUM ORTHOVANAD
[9]
  IC50: 16.5 µM

## C=C[C@@](O)(CC[C@@H](C)[C@H]1CC[C@H]2[C@@H]3CC=C4C[C@@H](O)CC[C@]4(C)[C@H]3CC[C@]12C)C(C)C
[2]
  inhibition: < 50%
[3]
  IC50: > 100 µM
[4]
  inhibition: < 50%
[5]
  inhibition: < 50%
[6]
  inhibition: < 50%
[1]
  IC50: > 100 µM
[7]
  inhibition: < 50%
[8]
  IC50: 10.3 µM

## CC1=CC(=O)OC1CC[C@H](C)CCC[C@H](C)CCCC(C)C (stereo not given in full)
[1]
  IC50: 49.3 µM

## CC1(C)CC[C@]2(C(=O)O)CC[C@]3(C)C(=CC[C@@H]4[C@@]5(C)CC[C@H](O)C(C)(C)[C@@H]5CC[C@]43C)[C@@H]2C1 [OLEANOLIC_ACID]
[2]
  inhibition: < 50%
[4]
  inhibition: < 50%
[10]
  IC50: 0.98 µM
[6]
  inhibition: < 50%

## CC(C)C(=O)/C=C/[C@@H](C)[C@H]1CC[C@H]2[C@@H]3CC=C4C[C@@H](O)CC[C@]4(C)[C@H]3CC[C@]12C
[2]
  inhibition: < 50%
[3]
  IC50: > 100 µM
[4]
  inhibition: < 50%
[5]
  inhibition: < 50%
[6]
  inhibition: < 50%
[1]
  IC50: > 100 µM
[11]
  Activity: 15.98%
[7]
  inhibition: < 50%
[8]
  IC50: 50 µM

## O=C(O[C@@H]1Cc2c(O)cc(O)cc2O[C@@H]1c1cc(O)c(O)c(O)c1)c1cc(O)c(O)c(O)c1 [EPIGALOCATECHIN GALLATE]
[11]
  Activity: 16.57%

## CC(=O)OC/C=C(\C)CCC[C@H](C)CCC[C@H](C)CCCC(C)C
[2]
  inhibition: < 50%
[3]
  IC50: > 100 µM
[4]
  inhibition: < 50%
[5]
  inhibition: < 50%
[6]
  inhibition: < 50%
[1]
  IC50: > 100 µM
[7]
  inhibition: < 50%
[8]
  IC50: 50 µM

## CC1=C(C)C(=O)C(CC[C@](C)(O)CCC[C@H](C)CCC[C@H](C)CCCC(C)C)=C(C)C1=O
[12]
  IC50: 35.1 µM
[2]
  inhibition: < 50%
[3]
  IC50: 85.3 µM
[4]
  inhibition: < 50%
[10]
  IC50: 23.2 µM
[6]
  inhibition: < 50%
[1]
  IC50: 45 µM
[8]
  IC50: 3.85 µM

## CC(=O)[C@]1(O)C(C)=C(C)C(=O)[C@@]12CC[C@](C)(CCC[C@H](C)CCC[C@H](C)CCCC(C)C)O2
[3]
  IC50: > 100 µM
[1]
  IC50: 67.4 µM

## CC(=O)/C(=C/C[C@@H](C)[C@H]1CC[C@H]2[C@@H]3CC=C4C[C@@H](O)CC[C@]4(C)[C@H]3CC[C@]12C)C(C)C
[2]
  inhibition: < 50%
[3]
  IC50: > 100 µM
[4]
  inhibition: < 50%
[5]
  inhibition: < 50%
[6]
  inhibition: < 50%
[1]
  IC50: > 100 µM
[11]
  Activity: 11.31%
[7]
  inhibition: < 50%
[8]
  IC50: 3.8 µM

## CC1=C(CCC(=O)OC/C=C(\C)CCC[C@H](C)CCC[C@H](C)CCCC(C)C)C(=O)NC1=O
[12]
  IC50: 12.6 µM
[2]
  inhibition: < 50%
[3]
  IC50: > 100 µM
[4]
  inhibition: < 50%
[10]
  IC50: 42.9 µM
[6]
  inhibition: < 50%
[1]
  IC50: > 100 µM
[8]
  IC50: 2.3 µM

## CC1=C(C)C(=O)[C@@]2(CC[C@@](C)(CCC[C@H](C)CCC[C@H](C)CCCC(C)C)O2)[C@@](C)(O)C1=O
[2]
  inhibition: < 50%
[3]
  IC50: > 100 µM
[4]
  inhibition: < 50%
[5]
  inhibition: < 50%
[6]
  inhibition: < 50%
[1]
  IC50: > 100 µM
[11]
  Activity: 13.85%
[7]
  inhibition: < 50%
[8]
  IC50: 11 µM

## C/C(=C\CO)CCC[C@H](C)CCC[C@H](C)CCCC(C)C [TRANS-PHYTOL]
[2]
  inhibition: < 50%
[3]
  IC50: > 100 µM
[4]
  inhibition: < 50%
[5]
  inhibition: < 50%
[6]
  inhibition: < 50%
[1]
  IC50: > 100 µM
[7]
  inhibition: < 50%
[8]
  IC50: 32.6 µM
